In patent publication US9169247B2, “Tetrahydro-beta-carboline derivatives, synthesis and use thereof” (Southern Research Institute, priority 2009, dated 2015):

Experiments:
[1] = test system: human MDA-MB-231 breast tumor cells; test: Growth assay (Cell Titer Glo); type: cell-based; settings: Homo sapiens; for IC50: MDA-MB-231, 72 h, MDA-MB-231 breast, 72 h, Tables 3-5, read-out: IC50 value, μM, growth
Method: (§1) All human tumor cell lines were obtained from ATCC and grown under standard cell culture conditions at 37° C. in a humidified atmosphere with 5% CO2. Cells were grown in RPMI 1640 supplemented with 5% fetal bovine serum 2 mM glutamine, 100 units/ml penicillin, 100 units/ml streptomycin, and 0.25 μg/ml amphotericin. Cells were harvested at 70 to 90% confluence with trypsin/EDTA and used immediately Cell count and viability was determined by Trypan blue staining followed by hemocytometry. Only cultures displaying >95% cell viability were used for experiments. HMEC were grown according to the specifications from the supplier (Lonzo).
(§2) Tissue culture microtiter 96-well plates were seeded with cells at a density of 5,000 cells/well. The plates were incubated for 18-24 hours prior to any treatment. All test compounds were solubilized in 100% DMSO and diluted with media to obtain a final DMSO concentration of 0.1%. Cell viability was measured 72 hours after treatment by the Cell Titer Glo Assay (Promega), which is a luminescent assay that is an indicator of live cells as a function of metabolic activity and ATP content. The assay was performed according to manufacturer's specifications. Luminescence was measured by a Perkin Elmer Victor® multi-label plate reader.^6
(§3) Dose response curves were analyzed using Prism™ 4 software (GraphPad) to calculate IC50 values using a four parameter logistic equation.

ZR75-1 = test: Growth assay (Cell Titer Glo); type: cell-based; settings: Homo sapiens, ZR-75-1; ZR75-1 breast; 72 h
Method: (§4) Compounds 2a-h were tested for tumor cell growth inhibitory activity using the human breast MDA-MB-231 and ZR75-1 tumor cell lines and the colon CACO-2, SW-1116, and HT-29 tumor cell lines.
as §1, §2, §3

SW1116 = test: Growth assay (Cell Titer Glo); type: cell-based; settings: Homo sapiens, SW 1116; SW1116 colon; 72 h
Method: as §4, §1, §2, §3

CACO-2 = test: Growth assay (Cell Titer Glo); type: cell-based; settings: Homo sapiens; CACO-2 colon; 72 h
Method: as §4, §1, §2, §3

HT-29 = test: Growth assay (Cell Titer Glo); type: cell-based, human; settings: Homo sapiens, HT-29, 72 h, HT-29 colon
Method: as §4, §1, §2, §3

| SMILES | IC50 [1] | IC50 (ZR75-1) | IC50 (SW1116) | IC50 (CACO-2) | IC50 (HT-29) | melting point | inhibition at 10 µM ([1]; MDA-MB-231, MDA-MB-231, 10 μM, mean +/− spread) |
| --- | --- | --- | --- | --- | --- | --- | --- |
| COC(=O)[C@@H]1Cc2c([nH]c3ccccc23)[C@@H](c2ccccc2Br)N1C(=O)CCl [Compound 2d, Methyl (1R,3S)-1-(2-bromophenyl)-2-(2-chloroacetyl)-2,3,4,9-tetrahydro-1H-β-carboline-3-carboxylate] | 0.25 µM | 3.61 µM | 1.05 µM | 0.55 µM | 3.2 µM | – | – |
| COC(=O)C1Cc2c([nH]c3ccccc23)C(c2cc(OC)ccc2OC)N1C(=O)CCl [Compound 2h, Methyl (1R,3S)-1-(2,5-dimethoxyphenyl)-2-(2-chloroacetyl)-2,3,4,9-tetrahydro-4H-β-carboline-3-carboxylate] | 0.04 µM | 3.95 µM | > 10 µM | 0.29 µM | 5.59 µM | 228 to 230 °C | – |
| COC(=O)[C@@H]1Cc2c([nH]c3ccccc23)[C@H](c2ccccc2Br)N1C(=O)CCl [Compound 2c, Methyl (1S,3S)-1-(2-bromophenyl)-2-(2-chloroacetyl)-2,3,4,9-tetrahydro-1H-β-carboline-3-carboxylate] | 0.02 µM | 1.1 µM | 2.72 µM | 0.1 µM | 0.77 µM | – | – |
| COC(=O)[C@H]1Cc2c([nH]c3ccccc23)[C@@H](c2ccccc2Br)N1C(=O)CCl [Compound 2a, Methyl (1R,3R)-1-(2-bromophenyl)-2-(2-chloroacetyl)-2,3,4,9-tetrahydro-1H-β-carboline-3-carboxylate] | 0.06 µM | 3.52 µM | 2.79 µM | 0.79 µM | 1.9 µM | – | – |
| COC(=O)[C@H]1Cc2c([nH]c3ccccc23)[C@@H](c2cc(OC)ccc2OC)N1C(=O)CCl [Compound 2e, Methyl (1R,3R)-1-(2,5-dimethoxyphenyl)-2-(2-chloroacetyl)-2,3,4,9-tetrahydro-1H-β-carboline-3-carboxylate] | 4.25 µM | 5.7 µM | 7.2 µM | 3.5 µM | 3.38 µM | 108 to 111 °C | – |
| COC(=O)[C@@H]1Cc2c([nH]c3ccccc23)[C@@H](c2ccc(Cl)c(Cl)c2)N1C(=O)CCl [Compound 2p, (1R,3S) Methyl 1-(3,4-dichloro-phenyl)-2 (2-chloroacetyl)-2,3,4,9-tetrahydro-1H-β-carboline-3-carboxylate] | > 10 µM | – | – | – | > 10 µM | 162 to 165 °C | 55% |
| COC(=O)[C@@H]1Cc2c([nH]c3ccccc23)[C@H](c2cc(OC)ccc2OC)N1C(=O)CCl [Compound 2g, Methyl (1S,3S)-1-(2,5-dimethoxyphenyl)-2-(2-chloroacetyl)-2,3,4,9-tetrahydro-1H-β-carboline-3-carboxylate] | 1.6 µM | 4.13 µM | 3.71 µM | 3.04 µM | 6.12 µM | 105 to 108 °C | – |
| COC(=O)[C@H]1Cc2c([nH]c3ccccc23)[C@H](c2ccccc2Br)N1C(=O)CCl [Compound 2b, Methyl (1S,3R)-1-(2-bromophenyl)-2-(2-chloroacetyl)-2,3,4,9-tetrahydro-1H-β-carboline-3-carboxylate] | 0.02 µM | 1.1 µM | 4.3 µM | 1.6 µM | 1.16 µM | – | – |
